Assay results taken from US9814714B2, “Kinase modulation, and indications therefor” (Plexxikon Inc., priority 2015, dated 2017).

Columns and labels:
[1] = molecular target: NIH/3T3 cells stably expressing KIAA1549-BRAF fusions (Homo sapiens, UniProt P15056); test: BRAF fusion xenograft tumor growth; format: in vivo, balb/c nu/nu mice; conditions: three of the four KIAA1549-BRAF fusions; PLX4720 chow
Procedure: NIH/3T3 (ATCC® CRL-1658™) cells stably expressing KIAA1549-BRAF fusions (Fusion-1, Fusion-2, Fusion-3, and Fusion-4) were injected into the flank of balb/c nu/nu mice. Tumor growth was measured with calipers. Ellipsoid tumor volume was calculated using the following formula: volume=½·length·width^2.

[2] = tested on: pERK in IPC-298 cells (NRAS^Q61L); test: Phospho-ERK AlphaScreen assay, pERK activation in IPC-298; format: cell-based, human; conditions: Homo sapiens, IPC-298, read-out: pERK activation EC50 IPC298
Procedure: (§1) Phospho-ERK AlphaScreen® assay: The degree of ERK phosphorylation was determined using an AlphaScreen® assay where an increase in ERK1/2 phosphorylation at Thr202/Tyr204 brought the donor and acceptor AlphaScreen® beads into close proximity, generating a signal for quantification. To determine the effects of compound treatment on phosphorylation of ERK1/2, cells were plated in a 96-well plate and treated with an 8-point titration of compound for one hour at 37° C. before lysis. To detect pERK, cell lysates were incubated with streptavidin-coated AlphaScreen® donor beads, anti-mouse IgG AlphaScreen® acceptor beads, a biotinylated anti-ERK1/2 rabbit antibody, and a mouse antibody that recognizes ERK1/2 only when it is phosphorylated on Thr202 and Tyr204. The biotinylated ERK1/2 antibody binds to both the streptavidin-coated AlphaScreen® donor beads and to ERK1/2 (regardless of its phosphorylation state), and the phospho-ERK1/2 antibody binds to the acceptor beads and to ERK1/2 that is phosphorylated at Thr202/Tyr204. An increase in ERK1/2 phosphorylation at Thr202/Tyr204 brings the donor and acceptor AlphaScreen® beads into close proximity, generating a signal that can be quantified on an EnVision reader (Perkin Elmer).
(§2) Using AlphaScreen® technology, the ability of Formula I to affect the phosphorylation of ERK and MEK in the cells was measured quantitatively. Following treatment with compound, the cells were lysed, and a sample of the lysate was transferred to an assay plate. The lysate was mixed with antibodies directed against total ERK/MEK, antibodies that recognize specific phosphorylation sites on ERK/MEK, AlphaScreen® anti-mouse IgG Acceptor beads, and Streptavidin Donor beads. Upon excitation of the donor beads with laser light at 680 nm, singlet oxygen was produced. This singlet oxygen was rapidly quenched, unless the AlphaScreen® Acceptor beads were in close proximity, in which case a proximity signal can be measured at 580 nm. In the presence of phosphorylated ERK/MEK, there is a very strong proximity signal.
(§3) 1. One day before the assay, 50,000 cells were plated in each well of a 96-well tissue-culture-treated plate (Corning #3610) in a 50 μL volume. Cells were incubated at 37° C. overnight.
(§4) 2. Compounds were diluted in DMSO to 500× final concentration. Each compound was plated as an 8-point titration, using 1:3 dilutions in DMSO. The maximum concentration was about 5 mM.
(§5) 3. 1 μl of compound was added to each well of a 96-well polypropylene plate (Corning #3363). For A375, COLO829, SK-MEL-3, HCT116, and HT-29, the high control was DMSO, and the low control was 10 μM PLX4720 (CAS No. 918505-84-7). For B9 and IPC-298, the high control was 3.33 μM PLX4720, and the low control was DMSO. 4. 249 μL growth media was added to compounds, diluting them 250-fold. 5. […] The compound was incubated with the cells at 37° C. for one hour. 6. The media was aspirated, and the cells were lysed in 50 μL of ice-cold 1× Cell Lysis buffer. The plates were incubated on ice for 5 minutes to allow complete lysis of the cells. 7. A mixture of biotinylated donor antibody, acceptor antibody, and anti-mouse IgG AlphaScreen® acceptor beads in 1× AlphaLISA immunoassay buffer was prepared. 8. 5 μL of lysate was transferred to a 384-well assay plate (Perkin Elmer #6005359). 5 μL of the antibody and acceptor bead mixture was added. The plates were spinned.

[3] = tested on: pERK in HCT116 cells (KRAS^G13D); test: Phospho-ERK AlphaScreen assay, pERK activation in HCT116; format: cell-based; conditions: Homo sapiens, HCT-116, read-out: pERK activation EC50 HCT116
Procedure: as §1, §2, §3, §4, §5

[4] = tested on: pERK in A375 cells (BRAF^V600E, homozygous); test: Phospho-ERK AlphaScreen assay, pERK inhibition in A375; format: cell-based; conditions: Homo sapiens, A-375, 1 h, read-out: pERK inhibition IC50 A375
Procedure: as §1, §2, §3, §4, §5

[5] = tested on: pERK in B9 cells (HRAS^Q61L); test: Phospho-ERK AlphaScreen assay, pERK activation in B9; format: cell-based, murine; conditions: Mus musculus, read-out: pERK activation EC50 B9
Procedure: as §1, §2, §3, §4, §5

[6] = tested on: pERK in COLO829 cells (BRAF^V600E, heterozygous); test: Phospho-ERK AlphaScreen assay, pERK inhibition in COLO829; format: cell-based; conditions: Homo sapiens, COLO-829, 1 h, read-out: pERK inhibition IC50 COLO829
Procedure: as §1, §2, §3, §4, §5

Chain of NIH/3T3 cells stably expressing KIAA1549-BRAF fusions (P15056 448-766 limits assumed): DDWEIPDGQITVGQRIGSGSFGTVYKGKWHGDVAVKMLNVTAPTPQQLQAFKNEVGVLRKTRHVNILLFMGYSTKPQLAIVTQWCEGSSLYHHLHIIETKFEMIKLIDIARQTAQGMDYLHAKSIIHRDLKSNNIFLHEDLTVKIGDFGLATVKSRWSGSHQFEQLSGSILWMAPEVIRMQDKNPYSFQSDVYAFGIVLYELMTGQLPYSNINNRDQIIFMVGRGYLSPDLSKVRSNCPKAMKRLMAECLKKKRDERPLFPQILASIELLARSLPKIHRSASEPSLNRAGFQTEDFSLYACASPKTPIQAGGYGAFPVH

Effect on xenograft tumor growth (in words) [1] | SMILES | EC50 [2] [nM] | EC50 [3] [nM] | IC50 [4] [nM] | EC50 [5] [nM] | IC50 [6] [nM]
increased tumor growth | CCCS(=O)(=O)Nc1ccc(F)c(C(=O)c2c[nH]c3ncc(Cl)cc23)c1F [PLX4720, reference compound] |  |  |  |  | 
 | CNC(=O)c1cc(Oc2ccc(NC(=O)Nc3ccc(Cl)c(C(F)(F)F)c3)cc2)ccn1 [Sorafenib, sorafenib] | 19 | 86 | 4400 | 25 | 2000
 | CC(C)(C)c1nc(-c2cccc(NS(=O)(=O)c3c(F)cccc3F)c2F)c(-c2ccnc(N)n2)s1 [Dabrafenib, dabrafenib] | 10 | 3 | 1 | 10 | 5
